# Data as given in US9499550B2 (BRISTOL-MYERS SQUIBB COMPANY, priority 2012, dated 2016).
# Key:
# [1] = system: HCV genotype 1a (H77 strain) replicon in HUH-7 cells; test: HCV replicon luciferase reporter assay, genotype 1a; format: cell-based; settings: Hepatitis C virus, Huh-7, 72 h, HCV genotype 1a replicon luciferase assay, 3 days incubation, range class, read-out: LE_1a (EC50, range)
# In short: (§1)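 Replicon inhibition for both genotypes was measured as Renilla luciferase signal (EnduRen, 7.5 μM final, 2 h) after 3-day, 37° C exposure of replicon-bearing HUH-7 cells in 4% FCS DMEM, 0.5% DMSO. The 1b construct carries S1179I; the 1a H77 construct carries P1496L and S2204I. Twenty-point, 3-fold dilutions were fitted four-parametrically for EC50, and CC50 was taken from multiplexed Cell Titer-Blue.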
# [2] = system: HCV genotype 1b (Con1) replicon in HUH-7 cells; test: HCV replicon luciferase reporter assay, genotype 1b; format: cell-based; settings: Hepatitis C virus, Huh-7, 72 h, HCV genotype 1b replicon luciferase assay, 3 days incubation, range class, read-out: LE_1b (EC50, range)
# In short: as §1
Compound,EC50 [1],EC50 [2]
"COc1ccc2c(O[C@@H]3C[C@H]4C(=O)N[C@]5(C(=O)NS(=O)(=O)C6(C)CC6)C[C@H]5/C=C\CC[C@H](C)C[C@@H](C)[C@H](NC(=O)OC(C)(C)C)C(=O)N4C3)nc(-c3ccc(OC(C)C)c(F)c3)cc2c1 [Compound 3061, tert-butyl ((2R,6S,7R,9S,13aS,14aR,16aS,Z)-2-((3-(3-fluoro-4-isopropoxyphenyl)-6-methoxyisoquinolin-1-yl)oxy)-7,9-dimethyl-14a-(((1-methylcyclopropyl)sulfonyl)carbamoyl)-5,16-dioxo-1,2,3,5,6,7,8,9,10,11,13a,14,14a,15,16,16a-hexadecahydrocyclopropa[e]pyrrolo[1,2-a][1,4]diazacyclopentadecin-6-yl)carbamate]",4.82 to 103 nM,< 5.46 nM
"COc1ccc2c(O[C@@H]3C[C@H]4C(=O)N[C@]5(C(=O)NS(=O)(=O)C6(C)CC6)C[C@H]5/C=C\CC[C@@H](C)C[C@@H](C)[C@H](NC(=O)OC(C)(C)C)C(=O)N4C3)nc(-c3ccc(OC(C)C)c(F)c3)cc2c1 [Compound 3062, tert-butyl ((2R,6S,7R,9R,13aS,14aR,16aS,Z)-2-((3-(3-fluoro-4-isopropoxyphenyl)-6-methoxyisoquinolin-1-yl)oxy)-7,9-dimethyl-14a-(((1-methylcyclopropyl)sulfonyl)carbamoyl)-5,16-dioxo-1,2,3,5,6,7,8,9,10,11,13a,14,14a,15,16,16a-hexadecahydrocyclopropa[e]pyrrolo[1,2-a][1,4]diazacyclopentadecin-6-yl)carbamate]",< 5.46 nM,< 5.46 nM
"COc1ccc2c(O[C@@H]3C[C@H]4C(=O)N[C@]5(C(=O)NS(=O)(=O)C6CC6)C[C@H]5/C=C\CC[C@H](C)C[C@@H](C)[C@H](NC(=O)OC(C)(C)C(F)(F)F)C(=O)N4C3)nc(-c3ccc(OC(C)C)c(F)c3)cc2c1 [Compound 3063, 1,1,1-trifluoro-2-methylpropan-2-yl((2R,6S,7R,9S,13aS,14aR,16aS,Z)-14a-((cyclopropylsulfonyl)carbamoyl)-2-((3-(3-fluoro-4-isopropoxyphenyl)-6-methoxyisoquinolin-1-yl)oxy)-7,9-dimethyl-5,16-dioxo-1,2,3,5,6,7,8,9,10,11,13a,14,14a,15,16,16a-hexadecahydrocyclopropa[e]pyrrolo[1,2-a][1,4]diazacyclopentadecin-6-yl)carbamate]",4.82 to 103 nM,< 5.46 nM
"COc1ccc2c(O[C@@H]3C[C@H]4C(=O)N[C@]5(C(=O)NS(=O)(=O)C6CC6)C[C@H]5/C=C\CC[C@@H](C)C[C@@H](C)[C@H](NC(=O)OC(C)(C)C(F)(F)F)C(=O)N4C3)nc(-c3ccc(OC(C)C)c(F)c3)cc2c1 [Compound 3064, 1,1,1-trifluoro-2-methylpropan-2-yl((2R,6S,7R,9R,13aS,14aR,16aS,Z)-14a-((cyclopropylsulfonyl)carbamoyl)-2-((3-(3-fluoro-4-isopropoxyphenyl)-6-methoxyisoquinolin-1-yl)oxy)-7,9-dimethyl-5,16-dioxo-1,2,3,5,6,7,8,9,10,11,13a,14,14a,15,16,16a-hexadecahydrocyclopropa[e]pyrrolo[1,2-a][1,4]diazacyclopentadecin-6-yl)carbamate]",< 5.46 nM,< 5.46 nM
"COc1ccc2c(O[C@@H]3C[C@H]4C(=O)N[C@]5(C(=O)NS(=O)(=O)C6CC6)C[C@H]5/C=C\CC[C@H](C)C[C@@H](C)[C@H](NC(=O)OCC5(C)CC5)C(=O)N4C3)nc(-c3ccc(OC(C)C)c(F)c3)cc2c1 [Compound 3065, (1-methylcyclopropyl)methyl ((2R,6S,7R,9S,13aS,14aR,16aS,Z)-14a-((cyclopropylsulfonyl)carbamoyl)-2-((3-(3-fluoro-4-isopropoxyphenyl)-6-methoxyisoquinolin-1-yl)oxy)-7,9-dimethyl-5,16-dioxo-1,2,3,5,6,7,8,9,10,11,13a,14,14a,15,16,16a-hexadecahydrocyclopropa[e]pyrrolo[1,2-a][1,4]diazacyclopentadecin-6-yl)carbamate]",4.82 to 103 nM,< 5.46 nM
"COc1ccc2c(O[C@@H]3C[C@H]4C(=O)N[C@]5(C(=O)NS(=O)(=O)C6CC6)C[C@H]5/C=C\CC[C@@H](C)C[C@@H](C)[C@H](NC(=O)OCC5(C)CC5)C(=O)N4C3)nc(-c3ccc(OC(C)C)c(F)c3)cc2c1 [Compound 3066, (1-methylcyclopropyl)methyl ((2R,6S,7R,9R,13aS,14aR,16aS,Z)-14a-((cyclopropylsulfonyl)carbamoyl)-2-((3-(3-fluoro-4-isopropoxyphenyl)-6-methoxyisoquinolin-1-yl)oxy)-7,9-dimethyl-5,16-dioxo-1,2,3,5,6,7,8,9,10,11,13a,14,14a,15,16,16a-hexadecahydrocyclopropa[e]pyrrolo[1,2-a][1,4]diazacyclopentadecin-6-yl)carbamate]",< 5.46 nM,< 5.46 nM
"COc1ccc2c(O[C@@H]3C[C@H]4C(=O)N[C@]5(C(=O)NS(=O)(=O)C6(C)CC6)C[C@H]5/C=C\CC[C@H](C)C[C@@H](C)[C@H](NC(=O)OCC5(C)CC5)C(=O)N4C3)nc(-c3ccc(OC(C)C)c(F)c3)cc2c1 [Compound 3067, (1-methylcyclopropyl)methyl ((2R,6S,7R,9S,13aS,14aR,16aS,Z)-2-((3-(3-fluoro-4-isopropoxyphenyl)-6-methoxyisoquinolin-1-yl)oxy)-7,9-dimethyl-14a-(((1-methylcyclopropyl)sulfonyl)carbamoyl)-5,16-dioxo-1,2,3,5,6,7,8,9,10,11,13a,14,14a,15,16,16a-hexadecahydrocyclopropa[e]pyrrolo[1,2-a][1,4]diazacyclopentadecin-6-yl)carbamate]",4.82 to 103 nM,< 5.46 nM
"COc1ccc2c(O[C@@H]3C[C@H]4C(=O)N[C@]5(C(=O)NS(=O)(=O)C6(C)CC6)C[C@H]5/C=C\CC[C@@H](C)C[C@@H](C)[C@H](NC(=O)OCC5(C)CC5)C(=O)N4C3)nc(-c3ccc(OC(C)C)c(F)c3)cc2c1 [Compound 3068, (1-methylcyclopropyl)methyl ((2R,6S,7R,9R,13aS,14aR,16aS,Z)-2-((3-(3-fluoro-4-isopropoxyphenyl)-6-methoxyisoquinolin-1-yl)oxy)-7,9-dimethyl-14a-(((1-methylcyclopropyl)sulfonyl)carbamoyl)-5,16-dioxo-1,2,3,5,6,7,8,9,10,11,13a,14,14a,15,16,16a-hexadecahydrocyclopropa[e]pyrrolo[1,2-a][1,4]diazacyclopentadecin-6-yl)carbamate]",< 5.46 nM,< 5.46 nM
"COc1ccc2c(O[C@@H]3C[C@H]4C(=O)N[C@]5(C(=O)NS(=O)(=O)C6CC6)C[C@H]5/C=C\CC[C@H](C)C[C@@H](C)[C@H](NC(=O)O[C@@H]5C[C@@H]6C[C@@H]6C5)C(=O)N4C3)nc(-c3ccc(OC(C)C)c(F)c3)cc2c1 [Compound 3069, (1R,3r,5S)-bicyclo[3.1.0]hexan-3-yl((2R,6S,7R,9S,13aS,14aR,16aS,Z)-14a-((cyclopropylsulfonyl)carbamoyl)-2-((3-(3-fluoro-4-isopropoxyphenyl)-6-methoxyisoquinolin-1-yl)oxy)-7,9-dimethyl-5,16-dioxo-1,2,3,5,6,7,8,9,10,11,13a,14,14a,15,16,16a-hexadecahydrocyclopropa[e]pyrrolo[1,2-a][1,4]diazacyclopentadecin-6-yl)carbamate]",4.82 to 103 nM,< 5.46 nM
"COc1ccc2c(O[C@@H]3C[C@H]4C(=O)N[C@]5(C(=O)NS(=O)(=O)C6CC6)C[C@H]5/C=C\CC[C@@H](C)C[C@@H](C)[C@H](NC(=O)O[C@@H]5C[C@@H]6C[C@@H]6C5)C(=O)N4C3)nc(-c3ccc(OC(C)C)c(F)c3)cc2c1 [Compound 3070, (1R,3r,5S)-bicyclo[3.1.0]hexan-3-yl((2R,6S,7R,9R,13aS,14aR,16aS,Z)-14a-((cyclopropylsulfonyl)carbamoyl)-2-((3-(3-fluoro-4-isopropoxyphenyl)-6-methoxyisoquinolin-1-yl)oxy)-7,9-dimethyl-5,16-dioxo-1,2,3,5,6,7,8,9,10,11,13a,14,14a,15,16,16a-hexadecahydrocyclopropa[e]pyrrolo[1,2-a][1,4]diazacyclopentadecin-6-yl)carbamate]",< 5.46 nM,< 5.46 nM
"COc1ccc2c(O[C@@H]3C[C@H]4C(=O)N[C@]5(C(=O)NS(=O)(=O)C6(C)CC6)C[C@H]5/C=C\CC[C@H](C)C[C@@H](C)[C@H](NC(=O)O[C@@H]5C[C@@H]6C[C@@H]6C5)C(=O)N4C3)nc(-c3ccc(OC(C)C)c(F)c3)cc2c1 [Compound 3071, (1R,3r,5S)-bicyclo[3.1.0]hexan-3-yl((2R,6S,7R,9S,13aS,14aR,16aS,Z)-2-((3-(3-fluoro-4-isopropoxyphenyl)-6-methoxyisoquinolin-1-yl)oxy)-7,9-dimethyl-14a-(((1-methylcyclopropyl)sulfonyl)carbamoyl)-5,16-dioxo-1,2,3,5,6,7,8,9,10,11,13a,14,14a,15,16,16a-hexadecahydrocyclopropa[e]pyrrolo[1,2-a][1,4]diazacyclopentadecin-6-yl)carbamate]",4.82 to 103 nM,< 5.46 nM
"COc1ccc2c(O[C@@H]3C[C@H]4C(=O)N[C@]5(C(=O)NS(=O)(=O)C6(C)CC6)C[C@H]5/C=C\CC[C@@H](C)C[C@@H](C)[C@H](NC(=O)O[C@@H]5C[C@@H]6C[C@@H]6C5)C(=O)N4C3)nc(-c3ccc(OC(C)C)c(F)c3)cc2c1 [Compound 3072, (1R,3r,5S)-bicyclo[3.1.0]hexan-3-yl((2R,6S,7R,9R,13aS,14aR,16aS,Z)-2-((3-(3-fluoro-4-isopropoxyphenyl)-6-methoxyisoquinolin-1-yl)oxy)-7,9-dimethyl-14a-(((1-methylcyclopropyl)sulfonyl)carbamoyl)-5,16-dioxo-1,2,3,5,6,7,8,9,10,11,13a,14,14a,15,16,16a-hexadecahydrocyclopropa[e]pyrrolo[1,2-a][1,4]diazacyclopentadecin-6-yl)carbamate]",< 5.46 nM,< 5.46 nM
